Measurements: patent US11230526B1, “Cylcoalkenyl derivatives useful as agonists of the GPR120 and/or GPR40 receptors” (Janssen Pharmaceutica NV, priority 2018, dated 2022)

Experiments:
[1] = biological target: T1, Human GPR120 short form (Homo sapiens, UniProt Q5NUL3); assay: Human GPR120 calcium flux assay, Procedure Calcium B (4200 cells/well); assay type: cell-based
T1 construct: expressed in transfected cells
T1 sequence (Q5NUL3 1-361): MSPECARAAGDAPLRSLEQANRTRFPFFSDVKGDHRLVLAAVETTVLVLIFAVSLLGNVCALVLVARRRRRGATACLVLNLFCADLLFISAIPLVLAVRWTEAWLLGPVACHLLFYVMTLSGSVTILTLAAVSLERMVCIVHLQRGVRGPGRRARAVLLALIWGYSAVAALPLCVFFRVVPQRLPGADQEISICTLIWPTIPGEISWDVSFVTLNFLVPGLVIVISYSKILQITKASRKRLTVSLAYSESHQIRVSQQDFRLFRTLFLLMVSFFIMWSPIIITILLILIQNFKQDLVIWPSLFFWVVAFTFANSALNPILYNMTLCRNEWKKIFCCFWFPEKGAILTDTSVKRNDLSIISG
In short: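 HEK293 cells stably expressing human GPR120 (NM_001195755.1), 4200 cells/well, starved 1 h and loaded with Fluo-4 NW plus probenecid. Ligand-evoked calcium flux read on FLIPR for 300 s after a 10 s baseline. RFU = Fmax−Fmin; EC50 from four-parameter concentration-response fit.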

[2] = biological target: T2, short form of the GPR120 receptor (Homo sapiens, UniProt Q5NUL3); assay: Human GPR120 DiscoveRx PathHunter Beta-Arrestin assay, Procedure β-arrestin B; assay type: cell-based
T2 construct: host or cells: PathHunter CHO-K1 GPR120S β-Arrestin Cell Line
T2 sequence (P32121 whole entry partner, one chain of several): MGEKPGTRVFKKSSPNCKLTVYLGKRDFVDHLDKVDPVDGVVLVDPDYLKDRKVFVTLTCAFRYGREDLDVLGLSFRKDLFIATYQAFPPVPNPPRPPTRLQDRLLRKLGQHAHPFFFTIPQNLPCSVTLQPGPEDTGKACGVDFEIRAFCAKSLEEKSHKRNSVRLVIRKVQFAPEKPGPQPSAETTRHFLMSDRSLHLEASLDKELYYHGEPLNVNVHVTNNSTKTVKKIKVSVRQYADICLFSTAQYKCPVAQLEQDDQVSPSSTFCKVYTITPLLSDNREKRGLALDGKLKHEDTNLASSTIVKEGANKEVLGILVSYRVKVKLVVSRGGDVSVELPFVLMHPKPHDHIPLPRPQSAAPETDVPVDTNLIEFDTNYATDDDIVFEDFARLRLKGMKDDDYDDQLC

EC50 [1] [nM]	EC50 [2] [nM]	Compound
35	187	O=C(O)CCc1ccc(OCC2=C(c3ccc(Cl)cc3)CCCC2)c(F)c1 [Compound 511, 3-[4-[[2-(4-chlorophenyl)cyclohexen-1-yl]methoxy]-3-fluoro-phenyl]Propanoic Acid]
140	803	Cc1c(CCC(=O)O)ccc(OCC2=C(c3ccc(N(C)C)cc3)CCCC2)c1C [Compound 512, 3-[4-[[2-(4-dimethylaminophenyl)cyclohexen-1-yl]methoxy]-2,3-dimethyl-phenyl]Propanoic Acid]
42	137	O=C(O)CCc1ccc(OCC2=C(c3ccc(Cl)cc3)CCCC2)c(F)c1F [Compound 513, 3-[4-[[2-(4-chlorophenyl)cyclohexen-1-yl]methoxy]-2,3-difluoro-phenyl]Propanoic Acid]
53	252	O=C(O)CCc1ccc(OCC2=C(c3ccc(Cl)cc3)CCCC2)c2c1CCC2 [Compound 514, 3-[7-[[2-(4-chlorophenyl)cyclohexen-1-yl]methoxy]indan-4-yl]Propanoic Acid]
